Patent US20260256792A1, “TREATMENT OF CHRONIC SPONTANEOUS URTICARIA BY ADMINISTERING (R)-2-[3-[4-AMINO-3-(2-FLUORO-4-PHENOXY-PHENYL)PYRAZOLO[3,4-D]PYRIMIDIN-1-YL]PIPERIDINE-1-CARBONYL]-4-METHYL-4-[4-(OXETAN-3-YL)PIPERAZIN-1-YL]PENT-2-ENENITRILE” (priority 2023, published 2026)

System: moderate-to-severe chronic spontaneous urticaria (CSU)
Experiment: Phase 2 CSU study: urticaria activity score over 7 days (UAS7)
Format: in vivo, human
Design: key to UAS7 Median / UAS7 Change from baseline Median / UAS7 change from baseline, Q1 / UAS7 change from baseline, Q3 / UAS7 change from baseline, Max / UAS7 Change from baseline LS Mean (SE): UAS7 points; daily UAS score ranges 0–6 points/day, over 7 days
Text: The study comprises a 12 week, randomized, double-blind, placebo-controlled, multi-center, dose-ranging efficacy and safety phase, followed by a 40 week open label extension (OLE) phase (see FIG. 1). The study consists of three phases and an optional OLE phase. […] Clinically, CSU is characterized by the spontaneous and recurrent appearance of pruritic hives. The proposed primary endpoints were the UAS7 at Week 12 in EU and EU reference countries and the ISS7 in the US. Regardless of where a participant was from, all assessments were the same. The UAS7 score is a composite score containing both the HSS7 and the ISS7. This allowed a global assessment of the two key components of urticaria: hives and itch. […] The UAS is a validated PRO measure. […] The daily UAS scores range from 0 to 6 point/day. […] Patients were to complete the UAS using the e-diary. […] The following secondary endpoints were to be analyzed using the same approach as for the primary endpoint: • Change from baseline in UAS7 at Week 4 • Change from baseline in UAS7 at Week 12 (for US and US reference countries) • Change from baseline in ISS7 at Week 12 (except US and US reference countries) • Change from baseline in HSS7 at Week 12 The following responder secondary endpoints were to be analyzed using the Cochran-Mantel-Haenszel test adjusted by region: • Proportion of participants with UAS7<6 at Week 12 • Proportion of participants with UAS7=0 at Week 12 Participants who received selected prohibited medications and/or rescue medications were to be considered as non-responders for time points after the medication usage. For other participants, all available data including those collected during the off-treatment period were to be used to determine the responder/non-responder status. Missing data were to be considered as non-responders.

[1] = Week 11, 400 mg TID, Prior Omalizumab Use
[2] = Week 11, 400 mg TID, omalizumab-naive participants
[3] = Week 12, 400 mg BID, ITT population
[4] = Week 12, 400 mg BID, Omalizumab-Naïve
[5] = Week 12, 400 mg BID, Prior Omalizumab Use
[6] = Week 12, 400 mg BID, omalizumab-naive participants
[7] = Week 12, 400 mg QPM, ITT population
[8] = Week 12, 400 mg QPM, Omalizumab-Naïve
[9] = Week 12, 400 mg QPM, Prior Omalizumab Use
[10] = Week 12, 400 mg QPM, omalizumab-naive participants
[11] = Week 12, 400 mg TID, ITT population
[12] = Week 12, 400 mg TID, Omalizumab-Naïve
[13] = Week 12, 400 mg TID, Prior Omalizumab Use
[14] = Week 12, 400 mg TID, omalizumab-naive participants

## CC(C)(C=C(C#N)C(=O)N1CCC[C@@H](n2nc(-c3ccc(Oc4ccccc4)cc3F)c3c(N)ncnc32)C1)N1CCN(C2COC2)CC1 [rilzabrutinib, (R)-2-[3-[4-amino-3-(2-fluoro-4-phenoxy-phenyl)pyrazolo[3,4-d]pyrimidin-1-yl]piperidine-1-carbonyl]-4-methyl-4-[4-(oxetan-3-yl)piperazin-1-yl]pent-2-enenitrile]
[1]
  UAS7 Change from baseline Mean (SD): −25.94 (15.41)
  UAS7 Change from baseline Median: −26.33
  UAS7 Mean (SD): 7.08 (11.77)
  UAS7 Median: 1.75
  UAS7 Percent change from baseline Mean (SD): −76.09 (31.89) %
  UAS7 Percent change from baseline Median: −92.11%
[2]
  Non-responder, UAS7 reduction from baseline of 10 points or more: 12 (34.3) n (%)
  OR for rilzabrutinib vs. placebo, UAS7 reduction of 10 points or more: 1.839
  RRD (%) for rilzabrutinib vs. placebo, UAS7 reduction of 10 points or more: 13.6 %
  Responder, UAS7 reduction from baseline of 10 points or more: 23 (65.7) n (%)
[3]
  Non-responder, UAS7 reduction from baseline of 10 points or more: 23 (56.1) n (%)
  OR for rilzabrutinib vs. placebo, UAS7 reduction of 10 points or more: 1.041
  RRD (%) for rilzabrutinib vs. placebo, UAS7 reduction of 10 points or more: 1.0 %
  Responder, UAS7 reduction from baseline of 10 points or more: 18 (43.9) n (%)
[4]
  UAS7 Change from baseline Mean (SD): −14.49 (12.08)
  UAS7 Change from baseline Median: −12.80
  UAS7 Mean (SD): 15.61 (13.91)
  UAS7 Median: 14.00
  UAS7 Percent change from baseline Mean (SD): −50.20 (37.89) %
  UAS7 Percent change from baseline Median: −47.76%
[5]
  UAS7 Change from baseline Mean (SD): −26.00 (18.38)
  UAS7 Change from baseline Median: −31.00
  UAS7 Mean (SD): 8.75 (17.50)
  UAS7 Median: 0.00
  UAS7 Percent change from baseline Mean (SD): −75.00 (50.00) %
  UAS7 Percent change from baseline Median: −100.00%
[6]
  Non-responder, UAS7 reduction from baseline of 10 points or more: 20 (57.1) n (%)
  OR for rilzabrutinib vs. placebo, UAS7 reduction of 10 points or more: 1.069
  RRD (%) for rilzabrutinib vs. placebo, UAS7 reduction of 10 points or more: 1.7 %
  Responder, UAS7 reduction from baseline of 10 points or more: 15 (42.9) n (%)
[7]
  Non-responder, UAS7 reduction from baseline of 10 points or more: 24 (63.2) n (%)
  OR for rilzabrutinib vs. placebo, UAS7 reduction of 10 points or more: 0.841
  RRD (%) for rilzabrutinib vs. placebo, UAS7 reduction of 10 points or more: −4.0 %
  Responder, UAS7 reduction from baseline of 10 points or more: 14 (36.8) n (%)
[8]
  UAS7 Change from baseline Mean (SD): −10.57 (9.36)
  UAS7 Change from baseline Median: −8.70
  UAS7 Median: 22.87
  UAS7 Percent change from baseline Mean (SD): −33.23 (28.33) %
  UAS7 Percent change from baseline Median: −29.67%
[9]
  UAS7 Change from baseline Mean (SD): −25.00 (NC)
  UAS7 Change from baseline Median: −25.00
  UAS7 Mean (SD): 16.00 (NC)
  UAS7 Median: 16.00
  UAS7 Percent change from baseline Mean (SD): −60.98 (NC) %
  UAS7 Percent change from baseline Median: −60.98%
[10]
  Non-responder, UAS7 reduction from baseline of 10 points or more: 24 (64.9) n (%)
  OR for rilzabrutinib vs. placebo, UAS7 reduction of 10 points or more: 0.780
  RRD (%) for rilzabrutinib vs. placebo, UAS7 reduction of 10 points or more: −5.8 %
  Responder, UAS7 reduction from baseline of 10 points or more: 13 (35.1) n (%)
[11]
  Non-responder, UAS7 reduction from baseline of 10 points or more: 18 (43.9) n (%)
  OR for rilzabrutinib vs. placebo, UAS7 reduction of 10 points or more: 1.638
  RRD (%) for rilzabrutinib vs. placebo, UAS7 reduction of 10 points or more: 11.7 %
  Responder, UAS7 reduction from baseline of 10 points or more: 23 (56.1) n (%)
[12]
  UAS7 Change from baseline Mean (SD): −19.04 (11.40)
  UAS7 Change from baseline Median: −18.92
  UAS7 Mean (SD): 11.00 (9.90)
  UAS7 Percent change from baseline Mean (SD): −62.32 (31.89) %
  UAS7 Percent change from baseline Median: −60.00%
[13]
  UAS7 Change from baseline Mean (SD): −27.40 (16.76)
  UAS7 Change from baseline Median: −34.00
  UAS7 Mean (SD): 7.80 (13.01)
  UAS7 Median: 0.00
  UAS7 Percent change from baseline Mean (SD): −74.46 (35.38) %
  UAS7 Percent change from baseline Median: −100.00%
[14]
  Non-responder, UAS7 reduction from baseline of 10 points or more: 15 (42.9) n (%)
  OR for rilzabrutinib vs. placebo, UAS7 reduction of 10 points or more: 1.805
  Responder, UAS7 reduction from baseline of 10 points or more: 20 (57.1) n (%)
